Assay results: patent publication US7973051B2 (Hoffman-La Roche Inc., priority 2007, dated 2011)

Target: T1, human liver FBPase (Homo sapiens, UniProt P09467)
T1 construct: made in house; host or cells: E. coli
T1 sequence (P09467 2-338 limits assumed): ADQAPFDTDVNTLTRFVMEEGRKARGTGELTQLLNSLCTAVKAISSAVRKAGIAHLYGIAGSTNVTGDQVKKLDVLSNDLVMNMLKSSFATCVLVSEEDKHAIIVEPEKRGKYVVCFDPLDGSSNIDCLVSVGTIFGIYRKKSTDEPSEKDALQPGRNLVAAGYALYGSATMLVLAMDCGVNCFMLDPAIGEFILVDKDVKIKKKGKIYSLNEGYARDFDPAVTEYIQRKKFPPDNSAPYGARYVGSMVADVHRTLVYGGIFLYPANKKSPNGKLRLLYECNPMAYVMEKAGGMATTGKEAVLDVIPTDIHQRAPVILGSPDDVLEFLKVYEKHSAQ
Assay: FBPase assay: inorganic phosphate release (malachite green)
Type: biochemical
Conditions: recombinant human liver FBPase, 50 μM fructose-1,6-bisphosphate, read-out at 620 nm
Method: The following tests were carried out for evaluating the inhibitory activity of the compounds of the present invention against human liver FBPase (Swissprot Data base reference P09467, entry F16P_HUMAN).
Human liver FBPase cDNA (NM_000507) was purchased from Origene Technologies, Inc, subcloned in a vector for expression in E. Coli., and sequenced. Recombinant human liver FBPase (hlFBPase) was purified according to the following protocol that uses heat denaturation similarly to that described by El-Maghrabi et. al. [El-Maghrabi, M. R. et al. “Isolation of a human liver fructose-1,6-bisphosphatase cDNA and expression of the protein in Escherichia coli.” J Biol Chem 268:9466-9472, 1993.]. Briefly, E. coli cells, transiently expressing very high levels of soluble and active human liver FBPase, were suspended in 20 mM Tris-HCl pH 7.5, 1 mM EDTA, 1 mM DTT and were lysed by French press. The soluble extract was heat denatured at 65° C. for 5 min, and insoluble, denatured proteins were removed by centrifugation. The extract was then applied to a BioRad Macro-Prep High Q column equilibrated with 20 mM Tris-HCl pH 7.5, 1 mM EDTA, 1 mM DTT and the flow-through (containing FBPase activity) was collected and applied to a BioRad Macro-Prep HS column equilibrated with 20 mM HEPES pH 7.2, 1 mM DTT. A gradient of increasing NaCl concentration was then applied to the HS column and fractions were collected. Fractions containing active FBPase were pooled and further purified by size exclusion chromatography on a Sephacryl S200 column equilibrated in 20 mM Tris-HCl pH 7.5, 150 mM NaCl, 1 mM EDTA, 1 mM DTT. Purity of the enzyme preparation was >90% as assessed by Mass spectrometry.
Recombinant human liver FBPase (hlFBPase) activity was assayed through measuring the inorganic phosphate release that results from the hydrolysis of Fructose-1,6-bisphosphate by the enzyme. As described by Baykov A. A. et al. in [Baykov A. A et al., “Malachite Green procedure for orthophosphate determination and its use in alkaline phosphatase-based enzyme immunoassays”. Anal. Biochem., 171:266-270, 1988], inorganic phosphate can be readily quantified by spectrophotometry at 620 nm after complexation with ammonium molybdate/malachite green reagent. Enzymatic reaction was carried out with modifications of the procedure described by Wright S. W. et al. [Wright S. W. et al., “Anilinoquinazoline inhibitors of Fructose-1,6-bisphosphatase bind to a novel allosteric site: synthesis, in vitro characterization, and X-ray crystallography”. J. Med. Chem. 45:3865-3877, 2002]. Specifically, the reaction was carried out in 96 well plates in a final volume of 100 μl in the presence or in the absence of allosteric inhibitors. Reaction was started adding 25 ng of hlFBPase to the reaction mixture containing 50 mM HEPES-KOH buffer pH 7.2, 2 mM MgCl2, 2 mM EDTA, 1 mM DTT, 50 μM fructose-1,6-bisphosphate and 1% DMSO. After 50 minutes incubation at room temperature, the phosphate released was allowed to form a colored complex for 10 min by adding 150 μl of ammonium molybdate/malachite green reagent containing 0.03% malachite green, 0.2% ammonium molybdate, 0.05% Triton X-100 and 0.7 M H2SO4 in water that was stirred for 30 min at room temperature and filtered through 0.2 μm filter. Under these conditions, the assay was linear with time and able to detect FBPase inhibition after spectrophotometric read-out at 620 nm.

Structure (SMILES)	IC50
Cc1cc(S(=O)(=O)NC(=O)Nc2nc(-c3ccccc3)c(C)s2)sc1CCO [Example 76, 5-(2-Hydroxyethyl)-4-methyl-N-[(5-methyl-4-phenyl-1,3-thiazol-2-yl)carbamoyl]thiophene-2-sulfonamide]	0.28 µM
COCc1oc(S(=O)(=O)NC(=O)Nc2nc(C)c(Br)s2)cc1C [Example 35, N-[(5-Bromo-4-methyl-1,3-thiazol-2-yl)carbamoyl]-5-(methoxymethyl)-4-methylfuran-2-sulfonamide]	0.258 µM
COCCc1sc(S(=O)(=O)NC(=O)Nc2nc(C)c(OC)s2)cc1C [Example 96, 5-(2-Methoxyethyl)-N-[(5-methoxy-4-methyl-1,3-thiazol-2-yl)carbamoyl]-4-methylthiophene-2-sulfonamide]	0.637 µM
COc1ccc2nc(NC(=O)NS(=O)(=O)c3cc(C)c(CCO)s3)sc2n1 [Example 56, 5-(2-Hydroxyethyl)-N-[(5-methoxy[1,3]thiazolo[5,4-b]pyridin-2-yl)carbamoyl]-4-methylthiophene-2-sulfonamide]	0.534 µM
COc1sc(NC(=O)NS(=O)(=O)c2cc(C)c(CCOC(C)=O)s2)nc1C [Example 74, 2-[5-({[(5-Methoxy-4-methyl-1,3-thiazol-2-yl)carbamoyl]amino}sulfonyl)-3-methyl-2-thienyl]ethyl acetate]	0.454 µM
CC(=O)OCCc1sc(S(=O)(=O)NC(=O)Nc2nc(C)c(Br)s2)cc1C [Example 64, 2-[5-({[(5-Bromo-4-methyl-1,3-thiazol-2-yl)carbamoyl]amino}sulfonyl)-3-methyl-2-thienyl]ethyl acetate]	0.188 µM
COC(=O)c1ccc2c(c1)c(S(=O)(=O)NC(=O)Nc1ncc(Br)s1)cn2C [Example 25, Methyl 3-({[(5-bromo-1,3-thiazol-2-yl)carbamoyl]amino}sulfonyl)-1-methyl-1H-indole-5-carboxylate]	0.731 µM
O=C(Nc1ncc(Br)s1)NS(=O)(=O)c1cc2cc(Cl)ccc2s1 [Example 13, N-[(5-Bromo-1,3-thiazol-2-yl)carbamoyl]-5-chloro-1-benzothiophene-2-sulfonamide]	0.111 µM
Cc1cc(S(=O)(=O)NC(=O)Nc2nc3c(C)cccc3s2)sc1CCO [Example 94, 5-(2-Hydroxyethyl)-4-methyl-N-[(4-methyl-1,3-benzothiazol-2-yl)carbamoyl]thiophene-2-sulfonamide]	0.064 µM
Cn1cc(S(=O)(=O)NC(=O)Nc2ncc(Br)s2)c2ccccc21 [Example 23, N-[(5-Bromo-1,3-thiazol-2-yl)carbamoyl]-1-methyl-1H-indole-3-sulfonamide]	0.385 µM
COCc1nc(NC(=O)NS(=O)(=O)c2cc(C)c(CCO)s2)sc1SC [Example 88, 5-(2-Hydroxyethyl)-N-{[4-(methoxymethyl)-5-(methylthio)-1,3-thiazol-2-yl]carbamoyl}-4-methylthiophene-2-sulfonamide]	0.369 µM
COc1sc(NC(=O)NS(=O)(=O)c2csc(C)c2)nc1C [Example 95, N-[(5-Methoxy-4-methyl-1,3-thiazol-2-yl)carbamoyl]-5-methylthiophene-3-sulfonamide]	0.594 µM
O=C(Nc1ncc(Br)s1)NS(=O)(=O)c1cc2ccccc2s1 [Example 2, N-[(5-Bromo-1,3-thiazol-2-yl)carbamoyl]-1-benzothiophene-2-sulfonamide]	0.434 µM
Cn1cc(S(=O)(=O)NC(=O)Nc2ncc(Br)s2)c2cccc(OCc3ccccc3)c21 [Example 41, 7-(Benzyloxy)-N-[(5-bromo-1,3-thiazol-2-yl)carbamoyl]-1-methyl-1H-indole-3-sulfonamide]	0.124 µM
COCCOc1cccc2cc(S(=O)(=O)NC(=O)Nc3ncc(Br)s3)sc12 [Example 38, N-[(5-bromo-1,3-thiazol-2-yl)carbamoyl]-7-(2-methoxyethoxy)-1-benzothiophene-2-sulfonamide]	0.179 µM
CCc1sc(NC(=O)NS(=O)(=O)c2cc(C)c(CCO)s2)nc1C(C)C [Example 79, N-[(5-Ethyl-4-isopropyl-1,3-thiazol-2-yl)carbamoyl]-5-(2-hydroxyethyl)-4-methylthiophene-2-sulfonamide]	0.188 µM
O=C(Nc1ncc(Br)s1)NS(=O)(=O)c1cc2cccc(OCc3ccccc3)c2s1 [Example 37, 7-(Benzyloxy)-N-[(5-bromo-1,3-thiazol-2-yl)carbamoyl]-1-benzothiophene-2-sulfonamide]	0.972 µM
Cn1cc(S(=O)(=O)NC(=O)Nc2ncc(Br)s2)c2cccc(Br)c21 [Example 34, 7-Bromo-N-[(5-bromo-1,3-thiazol-2-yl)carbamoyl]-1-methyl-1H-indole-3-sulfonamide]	0.296 µM

The next lines start with the values.

IC50	Structure (SMILES)
0.466 µM	CCc1nc(NC(=O)NS(=O)(=O)c2csc(C)c2)sc1OC [Example 61, N-[(4-Ethyl-5-methoxy-1,3-thiazol-2-yl)carbamoyl]-5-methylthiophene-3-sulfonamide]
0.141 µM	COc1cccc2sc(NC(=O)NS(=O)(=O)c3cc(C)c(CCO)s3)nc12 [Example 93, 5-(2-Hydroxyethyl)-N-[(4-methoxy-1,3-benzothiazol-2-yl)carbamoyl]-4-methylthiophene-2-sulfonamide]
0.16 µM	COCCc1sc(S(=O)(=O)NC(=O)Nc2nc(-c3ccccc3)c(C)s2)cc1C [Example 66, 5-(2-Methoxyethyl)-4-methyl-N-[(5-methyl-4-phenyl-1,3-thiazol-2-)carbamoyl]thiophene-2-sulfonamide]
0.214 µM	CCc1nc(NC(=O)NS(=O)(=O)c2csc(C)c2)sc1CC [Example 62, N-[(4,5-Diethyl-1,3-thiazol-2-yl)carbamoyl]-5-methylthiophene-3-sulfonamide]
0.624 µM	Cc1ccc2scc(S(=O)(=O)NC(=O)Nc3ncc(Br)s3)c2c1 [Example 11, N-[(5-Bromo-1,3-thiazol-2-yl)carbamoyl]-5-methyl-1-benzothiophene-3-sulfonamide]
0.652 µM	COCCc1sc(S(=O)(=O)NC(=O)Nc2ncc(OC)s2)cc1C [Example 97, 5-(2-Methoxyethyl)-N-[(5-methoxy-1,3-thiazol-2-yl)carbamoyl]-4-methylthiophene-2-sulfonamide]
0.315 µM	COCc1oc(S(=O)(=O)NC(=O)Nc2ncc(Br)s2)cc1C [Example 36, N-[(5-Bromo-1,3-thiazol-2-yl)carbamoyl]-5-(methoxymethyl)-4-methylfuran-2-sulfonamide]
0.74 µM	Cn1cc(S(=O)(=O)NC(=O)Nc2ncc(Br)s2)c2ccc(C#N)cc21 [Example 29, N-[(5-Bromo-1,3-thiazol-2-yl)carbamoyl]-6-cyano-1-methyl-1H-indole-3-sulfonamide]
0.393 µM	CCc1nc(NC(=O)NS(=O)(=O)c2cc(C)c(CCOC)s2)sc1CC [Example 63, N-[(4,5-Diethyl-1,3-thiazol-2-yl)carbamoyl]-5-(2-methoxyethyl)-4-methylthiophene-2-sulfonamide]
0.417 µM	CCc1sc(NC(=O)NS(=O)(=O)c2cc(C)c(CCO)s2)nc1C [Example 70, N-[(5-Ethyl-4-methyl-1,3-thiazol-2-yl)carbamoyl]-5-(2-hydroxyethyl)-4-methylthiophene-2-sulfonamide]
0.102 µM	CCc1sc(NC(=O)NS(=O)(=O)c2cc(C)c(CCO)s2)nc1-c1ccccc1 [Example 81, N-[(5-Ethyl-4-phenyl-1,3-thiazol-2-yl)carbamoyl]-5-(2-hydroxyethyl)-4-methylthiophene-2-sulfonamide]
